According to publication PMC9558510 (Cancers, 2022):

How the values were obtained:
[1] = Observed steady-state serum concentrations (LC-MS/MS) in melanoma patients; type: in vivo, human
Description: Serum samples were collected regularly during each routine outpatient visit from study enrollment until January 2022 or until treatment discontinuation. If possible, blood sampling was performed before the next drug administration, but any time interval between the last administration and blood withdrawal was accepted. The steady-state was assumed after continuous dosing for fourteen days for both compounds.
Hydroxy-dabrafenib concentrations were analyzed using a different previously published LC-MS/MS method with an LLOQ of 10 ng/mL [37]. […] Hydroxy-dabrafenib was not quantified in capillary blood samples as the methodology was not available at the time of analysis. All the methods have been validated according to the guidelines of the U.S. Food and Drug Administration and/or the European Medicines Agency.
(§1) Data were collected and processed using Microsoft Excel 2016 Version 16.0 (Microsoft Corporation, Redmond, WA, USA). Statistical calculations and visualization of results were performed with R Studio Version 1.2.5042 (RStudio Incorporation, Boston, MA, USA) running R version 4.0.5 (R Foundation for Statistical Computing, Vienna, Austria, 2020). For further analysis, serum concentrations were divided into groups according to time interval post-dose as follows: 0–5 h, 5–10 h, 10–14 h, and >14 h for (hydroxy-)dabrafenib and 0–10 h, 10–20 h, 20–30 h, and >30 h for trametinib. Concentrations < LLOQ were excluded from further statistical analyses. The concentrations of the same patient at the same dosage and within the same post-dose group were summarized into an individual mean serum concentration for descriptive statistical analysis to account for potential bias caused by the unbalanced number of samples per patient. […] The Wilcoxon […] test was used for unpaired samples. The correlations between individual PK parameters sampled from the conditional distribution during the generation of EBE (methods for estimation see below) and age, sex, body mass index (BMI), and co-medication were analyzed using analysis of variance (ANOVA) and Spearman’s correlation coefficient. Logistic regression was used to compare the risk of treatment discontinuations or dose reductions (dabrafenib dose reduction or discontinuation, trametinib dose reduction or discontinuation, or any dose reduction or discontinuation) with the corresponding predicted trough concentrations and area under the curve of a dosing interval (AUCτ) of dabrafenib, hydroxy-dabrafenib, and trametinib as well as with the composite predicted dabrafenib/hydroxy-dabrafenib trough concentration and with composite dabrafenib/hydroxy-dabrafenib AUCτ assuming standard dosing. The Hosmer–Lemeshow test was used to evaluate the goodness of fit for our logistic regression model. Due to the explorative nature of the study, p-values obtained from multiple comparisons were not corrected for multiple testing. A p-value < 0.05 was considered statistically significant.

[2] = Empirical Bayesian estimates of serum AUCτ and Cmin from serum samples with existing popPK models; details: steady state, 150 mg q12h dabrafenib
Description: For each compound, a popPK model developed by Balakirouchenane et al. was assessed regarding its suitability to create EBE using Monolix 2021R1 (Lixoft SAS, Antony, Fance). […] The predictive performance of the models was estimated by calculating the prediction error (PE), mean prediction error (MPE), mean absolute prediction error (MAPE), and mean relative deviation (MRD):(1) PEi[%]=Cpredicted,i−Cobserved,i/Cobserved,i·100 (2) MPE[%]=1/n∑i=1nPEi (3) MAPE[%]=1/n∑i=1n|PEi| (4) MRD=10^x;x=1/n∑i=1n(log10[Cpredicted,i]−log10[Cobserved,i])^2
Estimates for AUCτ were generated for every occasion for the standard doses (150 mg q12h for dabrafenib, 2 mg q24h for trametinib). In addition, the individual predicted Cmin at a steady state was generated since not all patients contributed trough samples. The same estimates were used in the logistic regression model.

[3] = Logistic regression of dose reduction/discontinuation vs predicted exposure; type: in vivo, human; details: logistic regression, standard dosing assumed
Description: as §1

[4] = serum, dabrafenib dose of 150 mg q12h
[5] = standard dose, BMI (kg/m2) < 30
[6] = standard dose, BMI (kg/m2) >= 30
[7] = standard dose, P-gp inducer: no
[8] = standard dose, P-gp inducer: yes
[9] = standard dose, P-gp inhibitor: no
[10] = standard dose, P-gp inhibitor: yes
[11] = standard dose, age above 65: no
[12] = standard dose, age above 65: yes
[13] = standard dose, moderate CYP2C8 inhibitor: no
[14] = standard dose, moderate CYP2C8 inhibitor: yes

CC(C)(CO)c1nc(-c2cccc(NS(=O)(=O)c3c(F)cccc3F)c2F)c(-c2ccnc(N)n2)s1 [hydroxy-dabrafenib]
median of individual mean trough concentration [1, 4]: 76.0 ng/mL | range of individual mean trough concentration [1, 4]: 37.2 to 171.0 ng/mL | effect of co-medication with at least one P-gp inducer on individual mean trough concentrations ([1]; serum, standard dose): no effect | serum Cmin mean [1, 5]: 73.6 ng/mL | serum Cmin median [1, 5]: 72.9 ng/mL | serum Cmin mean [1, 6]: 97.6 ng/mL | serum Cmin median [1, 6]: 68.3 ng/mL | serum Cmin mean [1, 7]: 101 ng/mL | serum Cmin median [1, 7]: 90.9 ng/mL | serum Cmin mean [1, 8]: 62.1 ng/mL | serum Cmin median [1, 8]: 56.6 ng/mL | serum Cmin mean [1, 9]: 100 ng/mL | serum Cmin median [1, 9]: 78 ng/mL | serum Cmin mean [1, 10]: 77.3 ng/mL | serum Cmin median [1, 10]: 70.2 ng/mL | serum Cmin mean ([1]; standard dose, PPI: no): 93.1 ng/mL | serum Cmin median ([1]; standard dose, PPI: no): 78 ng/mL | serum Cmin mean ([1]; standard dose, PPI: yes): 53.7 ng/mL | serum Cmin median ([1]; standard dose, PPI: yes): 53.7 ng/mL | serum Cmin mean [1, 11]: 92.7 ng/mL | serum Cmin median [1, 11]: 77.6 ng/mL | serum Cmin mean [1, 12]: 66.2 ng/mL | serum Cmin median [1, 12]: 55.6 ng/mL | serum Cmin mean [1, 13]: 89.4 ng/mL | serum Cmin median [1, 13]: 78 ng/mL | serum Cmin mean [1, 14]: 86.3 ng/mL | serum Cmin median [1, 14]: 76.6 ng/mL | serum Cmin mean ([1]; standard dose, sex female): 86 ng/mL | serum Cmin median ([1]; standard dose, sex female): 68.3 ng/mL | serum Cmin mean ([1]; standard dose, sex male): 77.3 ng/mL | serum Cmin median ([1]; standard dose, sex male): 72.9 ng/mL | median of the average predicted trough concentrations [2]: 84.5 ng/mL | median of the average predicted AUCτ ([2]; average over all observations per patient): 6040 ng·h/mL | relationship between dose reduction or discontinuation due to AE and predicted serum trough concentrations or AUCτ [3]: no significant relationships
